Experimental data from ChEMBL document CHEMBL1781881, “Adenosine-derived inhibitors of 78 kDa glucose regulated protein (Grp78) ATPase: insights into isoform selectivity” (J Med Chem, 2011).

Columns and labels:
[1] = Inhibition of HSP70 by fluorescence polarization assay
HCT-116 = assay: Antiproliferative activity against human HCT116 cells; assay type: functional

SMILES | Ki [1] [nM] | GI50 (HCT-116) [µM]
Nc1ncnc2c1ncn2[C@@H]1O[C@H](COP(=O)(O)OP(=O)(O)O)[C@@H](O)[C@H]1O [ADENOSINE DIPHOSPHATE] | 110 | –
N#Cc1ccc(COC[C@H]2O[C@@H](n3c(NCc4ccc5ncccc5c4)nc4c(N)ncnc43)[C@H](O)[C@@H]2O)cc1 | 310 | > 80
Nc1ncnc2c1nc(NCc1ccc3ccccc3n1)n2[C@@H]1O[C@H](CO)[C@@H](O)[C@H]1O | 4320 | –
N#Cc1ccc(COC[C@H]2O[C@@H](n3c(NCc4ccc(Cl)c(Cl)c4)nc4c(N)ncnc43)[C@H](O)[C@@H]2O)cc1 | 120 | 5
Nc1ncnc2c1nc(NCc1ccc(Cl)c(Cl)c1)n2[C@@H]1O[C@H](COCc2ccccc2)[C@@H](O)[C@H]1O | 1050 | –
CNc1nc2c(N)ncnc2n1[C@@H]1O[C@H](COCC2CCCCC2)[C@@H](O)[C@H]1O | 4070 | –
CNc1nc2c(N)ncnc2n1[C@@H]1O[C@H](COCc2cccnc2)[C@@H](O)[C@H]1O | 450 | –
Nc1ncnc2c1nc(N)n2[C@@H]1O[C@H](CO)[C@@H](O)[C@H]1O | 4460 | 0.05
COC[C@H]1O[C@@H](n2c(NCc3ccc(Cl)c(Cl)c3)nc3c(N)ncnc32)[C@H](O)[C@@H]1O | 1440 | –
CNc1nc2c(N)ncnc2n1[C@@H]1O[C@H](CO)[C@@H](O)[C@H]1O | 8300 | –
CNc1nc2c(N)ncnc2n1[C@@H]1O[C@H](COCc2ccccc2)[C@@H](O)[C@H]1O | 1100 | –
Nc1ncnc2c1nc(NCc1ccc(Cl)c(Cl)c1)n2[C@@H]1O[C@H](CO)[C@@H](O)[C@H]1O | 4310 | 26
Nc1ncnc2c1nc(NCc1ccc3ncccc3c1)n2[C@@H]1O[C@H](CO)[C@@H](O)[C@H]1O | 1290 | > 80
